The values below come from publication PMC9088392 (RSC Advances, 2022).

SMILES strings stand for the structures.

This experiment deals with T1, PaER (Ogataea polymorpha, UniProt A0A1B7SQN2).
T1 sequence (A0A1B7SQN2 1-402): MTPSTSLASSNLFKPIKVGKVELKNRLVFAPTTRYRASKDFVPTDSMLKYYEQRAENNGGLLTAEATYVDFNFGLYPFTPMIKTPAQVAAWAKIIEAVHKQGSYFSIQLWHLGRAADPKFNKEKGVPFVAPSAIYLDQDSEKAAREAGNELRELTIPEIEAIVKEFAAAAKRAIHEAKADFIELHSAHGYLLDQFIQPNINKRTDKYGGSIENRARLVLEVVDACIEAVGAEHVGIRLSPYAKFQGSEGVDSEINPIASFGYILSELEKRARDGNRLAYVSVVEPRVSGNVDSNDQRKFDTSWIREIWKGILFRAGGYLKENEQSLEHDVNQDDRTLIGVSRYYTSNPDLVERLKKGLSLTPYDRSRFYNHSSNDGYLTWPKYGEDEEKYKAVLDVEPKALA
Kind of experiment: flavin released from purified enzyme by heat, RP-HPLC. Format: binding. To be noted: non-covalent flavin co-purified with the enzyme.

For `Cc1cc2nc3c(=O)[nH]c(=O)nc-3n(C[C@H](O)[C@H](O)[C@H](O)COP(=O)(O)O)c2cc1C` [FMN], the “flavin released from purified enzyme by heat, RP-HPLC” value was “yellow color as expected for FMN-containing protein and was also confirmed by HPLC”.
